Measured values as given in article PMC5312080 (mBio, 2017).
≈ marks a conversion by molar mass, not a printed value. Where “and” joins values, the source holds several entries; their conditions need not be identical. Equal entries are not always repeated. Where two headings read alike, the source gives them in different places.

Key:
[1] = system: clinical drug-susceptible and drug-resistant M. tuberculosis strains; assay: microbe, parasite or virus in culture; assay type: cell-based; conditions: Mycobacterium tuberculosis; for MIC90: H37RV
[2] = system: DG70-resistant mutants of H37Rv; assay type: cell-based, Mycobacterium tuberculosis

COc1ccc(-c2cc(NC(=O)c3ccc(F)cc3Cl)ccc2OC)cc1 [DG70, 2-chloro-N-(4',6-dimethoxy-[1,1'-biphenyl]-3-yl)-4-fluorobenzamide]
MIC [1]: 1.2 to 9.6 µg/mL (≈ 3.11 to 24.9 µM) | MIC90 ([1]; read-out: MIC90): 4.8 µg/mL (≈ 12.4 µM) | DG70 MIC90 [2]: >80 µg/mL and 40 µg/mL | MIC in Mtb P3 V20A [2]: >80 µg/mL | MIC in Mtb P7 F118L [2]: 40 µg/mL (≈ 104 µM)

COc1ccc(NC(=O)c2ccc(F)cc2Cl)cc1-c1ccccc1 [JSF-2971]
MIC in Mtb P3 V20A [2]: 40 µg/mL (≈ 112 µM) | MIC in Mtb P7 F118L [2]: 40 µg/mL (≈ 112 µM)

COc1ccc(-c2cc(NCc3ccc(F)cc3Cl)ccc2OC)cc1 [JSF-2951]
MIC in Mtb P3 V20A [2]: >80 µg/mL | MIC in Mtb P7 F118L [2]: >80 µg/mL

COc1ccc(-c2cccc(NC(=O)c3ccc(F)cc3Cl)c2)cc1 [JSF-2907]
MIC in Mtb P3 V20A [2]: >80 µg/mL | MIC in Mtb P7 F118L [2]: >80 µg/mL

COc1ccc(-c2cc(NC(=O)c3ccc(F)cc3)ccc2OC)cc1 [JSF-2909]
MIC in Mtb P3 V20A [2]: >80 µg/mL | MIC in Mtb P7 F118L [2]: >80 µg/mL

O=C(Nc1cccc(-c2ccccc2)c1)c1ccc(F)cc1Cl [JSF-2910]
MIC in Mtb P3 V20A [2]: >40 µg/mL | MIC in Mtb P7 F118L [2]: >40 µg/mL

COc1ccc(-c2cc(NC(=O)c3ccccc3)ccc2OC)cc1 [JSF-2912]
MIC in Mtb P3 V20A [2]: >40 µg/mL | MIC in Mtb P7 F118L [2]: >40 µg/mL

NNC(=O)c1ccncc1 [INH, isoniazid]
MIC90 [1]: 0.05 µg/mL (≈ 0.365 µM)

COc1ccc(-c2cc(N(C)C(=O)c3ccc(F)cc3Cl)ccc2OC)cc1 [JSF-2949]
MIC in Mtb P3 V20A [2]: >40 µg/mL | MIC in Mtb P7 F118L [2]: >40 µg/mL

O=C(Nc1ccc(O)c(-c2ccc(O)cc2)c1)c1ccc(F)cc1Cl [JSF-2950]
MIC in Mtb P3 V20A [2]: >40 µg/mL | MIC in Mtb P7 F118L [2]: >40 µg/mL

COc1ccc(-c2cc(NC(=O)c3ccccc3Cl)ccc2OC)cc1 [JSF-2908]
MIC in Mtb P3 V20A [2]: >40 µg/mL | MIC in Mtb P7 F118L [2]: >40 µg/mL

COc1ccc(NC(=O)c2ccc(F)cc2Cl)cc1 [JSF-2926]
MIC in Mtb P3 V20A [2]: 40 µg/mL (≈ 143 µM) | MIC in Mtb P7 F118L [2]: 40 µg/mL (≈ 143 µM)
